Results: patent US20070155779A1, “BICYCLIC HETEROARYL COMPOUNDS AS PDE10 INHIBITORS” (Pfizer Inc, priority 2006, published 2007)

Biological target: PDE10 (Homo sapiens, UniProt Q9Y233)
Test: PDE10 inhibition, Scintillation Proximity Assay (SPA)
Type: biochemical
Conditions: substrate at 1/3 Km, IC50 approximates Ki
Experimental: Assay methods are available to screen a substance for inhibition of cyclic nuticleotide hydrolysis by the PDE10 and the PDEs from other gene families. The cyclic nucleotide substrate concentration used in the assay is ⅓ of the Km concentration, allowing for comparisons of IC50 values across the different enzymes. PDE activity is measured using a Scintillation Proximity Assay (SPA)-based method as previously described (Fawcett et al., 2000), The effect of PDE inhibitors is determined by assaying a fixed amount of enzyme (PDEs 1-11) in the presence of varying substance concentrations and low substrate, such that the IC50 approximates the Ki (cGMP or cAMP in a 3:1 ratio unlabelled to [^3H]-labeled at a concentration of ⅓ Km).). The final assay volume is made up to 100 μl with assay buffer [20 mM Tris-HCl pH 7.4, 5 mM MgCl2, 1 mg/ml bovine serum albumin]. Reactions are initiated with enzyme, incubated for 30-60 min at 30° C. to give <30% substrate turnover and terminated with 50 μl yttrium silicate SPA beads (Amersham) (containing 3 mM of the respective unlabelled cyclic nucleotide for PDEs 9 and 11). Plates are re-sealed and shaken for 20 min, after which the beads were allowed to settle for 30 minutes in the dark and then counted on a TopCount plate reader (Packard, Meriden, Conn.).

Chain of PDE10 (Q9Y233 whole entry): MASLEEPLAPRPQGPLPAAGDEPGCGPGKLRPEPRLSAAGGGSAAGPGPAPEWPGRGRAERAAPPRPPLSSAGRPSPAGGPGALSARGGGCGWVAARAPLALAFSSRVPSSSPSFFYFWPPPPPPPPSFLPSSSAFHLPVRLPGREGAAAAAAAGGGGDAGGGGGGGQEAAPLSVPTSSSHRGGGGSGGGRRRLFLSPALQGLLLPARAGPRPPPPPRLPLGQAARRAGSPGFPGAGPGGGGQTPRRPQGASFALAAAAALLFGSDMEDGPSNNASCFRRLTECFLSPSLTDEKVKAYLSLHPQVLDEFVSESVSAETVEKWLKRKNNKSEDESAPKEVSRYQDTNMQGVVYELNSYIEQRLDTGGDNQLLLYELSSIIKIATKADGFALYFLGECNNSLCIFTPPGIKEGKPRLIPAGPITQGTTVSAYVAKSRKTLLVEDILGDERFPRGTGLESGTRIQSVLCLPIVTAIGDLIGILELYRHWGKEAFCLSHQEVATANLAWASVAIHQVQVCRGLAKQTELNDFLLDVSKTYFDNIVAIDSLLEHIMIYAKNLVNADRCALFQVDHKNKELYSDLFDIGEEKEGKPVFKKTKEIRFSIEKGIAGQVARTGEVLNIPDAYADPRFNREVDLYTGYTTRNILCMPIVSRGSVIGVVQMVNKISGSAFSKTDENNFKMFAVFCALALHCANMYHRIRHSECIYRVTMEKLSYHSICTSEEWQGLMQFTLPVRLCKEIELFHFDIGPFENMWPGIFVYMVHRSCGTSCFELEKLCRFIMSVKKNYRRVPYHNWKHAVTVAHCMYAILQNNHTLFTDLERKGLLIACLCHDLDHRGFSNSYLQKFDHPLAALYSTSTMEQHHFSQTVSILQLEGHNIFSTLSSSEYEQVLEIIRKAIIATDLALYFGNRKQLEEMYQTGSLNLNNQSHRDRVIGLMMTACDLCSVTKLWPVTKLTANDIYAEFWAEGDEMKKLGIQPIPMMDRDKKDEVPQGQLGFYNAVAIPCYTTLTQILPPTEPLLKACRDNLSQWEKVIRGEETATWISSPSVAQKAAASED

| Structure (SMILES) | IC50 |
| --- | --- |
| Cn1c(COc2ccc(-c3n[nH]cc3-c3ccncc3)cc2)nc2ccccc21 [Example 1, 1-Methyl-2-[4-(4-pyridin-4-yl-1H-pyrazol-3-yl)-phenoxymethyl]-1H-benzoimidazole] | 79 nM |
| CCn1cc(-c2ccncc2)c(-c2ccc(OCc3nc4ccccc4n3C)cc2)n1 [Example 2, 2-[4-(1-Ethyl-4-pyridin-4-yl-1-H-pyrazol-3-yl)-phenoxylmethyl]-1-methyl-1-1H-benzoimidazole] | 1.38 nM |
| C[C@@H](O)Cn1cc(-c2ccncc2)c(-c2ccc(OCc3nc4ccccc4n3C)cc2)n1 [Example 3, 1-{3-[4(1-Methyl-1H-benzoimidazol-2-ylmethoxy)-phenyl]-4-pyridin-4-yl-pyrazol-1-yl)-propan-2-ol] | 2.6 nM |
| Cn1c(COc2ccc(-c3oncc3-c3ccncc3)cc2)nc2ccccc21 [Example 4, 1-Methyl-2-[4-(4-pyridin-4-yl-isoxazol-5-yl)-phenoxymethyl]-1-H-benzoimidazole] | 4.94 nM |
| Cn1cc(-c2ccncc2)c(-c2ccc(OCc3nc4ccccc4n3C)cc2)n1 [Example 5, 1-Methyl-2-[4-(1-methyl-4-pyridin-4-yl-1H-pyrazol-3-yl)-phenoxymethyl]-1-H-benzoimidazole] | 0.56 nM |
| Cn1ncc(-c2ccncc2)c1-c1ccc(OCc2nc3ccccc3n2C)cc1 [Example 6, 1-Methyl-2-[4-(2 methyl-4-pyridin-4-yl-2H-pryazol-3-yl)-phenoxymethyl]-1H-benzoimidazole] | 1.84 nM |
| Cn1cc(-c2ccncc2)c(-c2ccc(OCc3nc4ccccc4n3CF)cc2)n1 [Example 7, 1-Fluoromethyl-2-[4-(1-methyl-4-pyridin-4-yl-1H-pyrazol-3-yl)-phenoxymethyl]-1H-benzoimidazole] | 0.98 nM |
| CC(C)n1c(COc2ccc(-c3nn(C)cc3-c3ccncc3)cc2)nc2ccccc21 [Example 8, 1-Isopropyl-2-[4-(1-methyl-4-pyridin-4-yl-1H-pyrazol-3-yl)-phenoxymethyl]-1H-benzoimidazole] | 8.91 nM |
| Cn1cc(-c2ccncc2)c(-c2ccc(OCc3nc4ccccc4n3C3CC3)cc2)n1 [Example 9, 1-Cyclopropyl-2-[4-(1-methyl-4-pyridin-4-yl-1H-pyrazol-3-yl)-phenoxymethyl]-1-H-benzoimidazole] | 0.69 nM |
| COCCn1c(COc2ccc(-c3nn(C)cc3-c3ccncc3)cc2)nc2ccccc21 [Example 10, 1-(2-Methoxy-ethyl)-2[4-(1-methyl-4-pyridin-4-yl-1H-pyrazol-3-yl)-phenoxymethyl]-1H-benzoimidazole] | 1.6 nM |
| Cn1cc(-c2ccncc2)c(-c2ccc(OCc3cn4ccccc4n3)cc2)n1 [Example 11, 2-[4-(1-Methyl-4-pyridin-4yl-1H-pyrazol-3-yl)-phenoxymethyl]-imidazo[1,2-a]pyridine] | 0.53 nM |
| Cn1ncc(-c2ccncc2)c1-c1ccc(OCc2cn3ccccc3n2)cc1 [Example 12] | 0.53 nM |
| Cn1cc(-c2ccncc2)c(-c2ccc(OCc3nc4ccccn4n3)cc2)n1 [Example 13, 2-[4-(1-Methyl-4-pyridin-4-yl-1H-pyrazol-3-yl)-phenoxymethyl]-[1,2,4]triazolo[1,5-a]-pyridine] | 1.14 nM |
| FC(F)(F)Cn1cc(-c2ccncc2)c(-c2ccc(OCc3nc4ccccn4n3)cc2)n1 [Example 14, 2-{4-[4-Pyridin-4-yl-1-(2,2,2-trifluoro-ethyl)-1-H-pyrazol-3-yl]-phenoxymethyl}-[1,2,4]triazolo[1,5-a]pyridine] | 0.56 nM |
| FC(F)(F)Cn1cc(-c2ccncc2)c(-c2ccc(OCc3cn4ccccc4n3)cc2)n1 [Example 15] | 0.39 nM |
| Cn1c(COc2ccc(-c3nn(CC(F)(F)F)cc3-c3ccncc3)cc2)nc2ccccc21 [Example 16, 1-Methyl-2-{4-[4-pyridin-4-yl-1-(2,2,2-trifluoro-ethyl)-1H-pyrazol-3yl]-phenoxymethyl}-1H-benzoimidazole] | 0.21 nM |

| Structure (SMILES) | IC50 |
| --- | --- |
| FCn1c(COc2ccc(-c3nn(CC(F)(F)F)cc3-c3ccncc3)cc2)nc2ccccc21 [Example 17, 1-Fluoromethyl-2-{4-[4-pyridin-4-yl-1-(2.2.2-trifluoro-ethyl)-1-H-pyrazol-3-yl]-phenoxymethyl}-1H-benzoimidazole] | 0.75 nM |
| Cn1cc(-c2ccncc2)c(-c2ccc(OCc3nc4ncccc4n3C)cc2)n1 [Example 18] | 9.31 nM |
| Cn1cc(-c2ccncc2)c(-c2ccc(OCc3nc4cnccc4n3C)cc2)n1 [Example 19, 1-Methyl-2-[4-(1-methyl-4-pyridin-4-yl-1H-pyrazol-3-yl)-phenoxymethyl]-1-H-imidazo[4,5-c]pyridine] | 133 nM |
| Cn1cc(-c2ccncc2)c(-c2ccc(OCc3nc4cc(F)c(F)cc4n3C)cc2)n1 [Example 20, 5,6-Difluoro-1-methyl-2-[4-(1-methyl-4-pyridin-4-yl-1H-pyrazol-3-yl)-phenoxymethyl]-1H-benzoimidazole] | 16.7 nM |
| Cn1cc(-c2ccncc2)c(-c2ccc(OCc3nc4ccccc4s3)cc2)n1 [Example 21, 2-[4-(1-Methyl-4-pyridin-4-yl-1H-pyrazol-3-yl)-phenoxymethyl]-benzothiazole] | 0.89 nM |
| FC(F)(F)Cn1cc(-c2ccncc2)c(-c2ccc(OCc3nc4ccccc4s3)cc2)n1 [Example 22, 2-{4-[4-Pyridin-4-yl-1-(2,2 2-trifluoro-ethyl)-1H-pyrazol-3-yl]-phenoxymethyl}-benzothiazole] | 1.48 nM |
| Cn1cc(-c2ccncc2)c(-c2ccc(OCc3nc4cccc5c4n3CCC5)cc2)n1 [Example 23, 2-[4-(1-Methyl-4-pyridin-4-yl-1H-pyrazol-3-yl)-phenoxymethyl]-5,6-dihydro-4H-imidazo[4,5,1-ij]quinoline] | 3.09 nM |
| Cc1c(COc2ccc(-c3nn(C)cc3-c3ccncc3)cc2)nc2ccccn12 [Example 24, 3-Methyl-2-[4-(1-methyl-4-pyridin-4-yl-1H-pyrazol-3-yl)-phenoxymethyl]-imidazo[1,2-a]pyridine] | 1.4 nM |
| Cn1cc(-c2ccncc2)c(-c2ccc(OCc3nc4ccccc4n3CC(F)(F)F)cc2)n1 [Example 25, 2-[4-(1-Methyl-4-pyridin-4-yl-1H-pyrazol-3-yl)-phenoxymethyl]-1-(2,2,2trifluoro-ethyl)-1H-benzoimidazole] | 10 nM |
| Cn1c(COc2ccc(-n3nccc3-c3ccncc3)cc2)nc2ccccc21 [Example 26, 1-Methyl-2-[4-(5-pyridin-4-yl-pyrazol-1-yl)-phenoxymethyl]-1H-benzoimidazole] | 3.05 nM |
| Cn1cc(-c2ccncc2)c(-c2ccc(CCc3nc4ccccc4n3C)cc2)n1 [Example 27, 1-Methyl-2{2-[4-(1methyl-4-pyridin-4-yl-1H-pyrazol-3-yl)-phenyl]-ethyl}-1H-benzoimidazole] | 16.2 nM |
| Cn1c(COc2ccc(-c3nncn3-c3ccncc3)cc2)nc2ccccc21 [Example 28, 1-Methyl-2[4-(4-pyridin-4-yl-4H-[1,2,4]triazol-3-yl)-phenoxymethyl]-1H-benzoimidazole] | 46.3 nM |
| Cn1cc(-c2ccncc2)c(-c2ccc(OCc3cn4ccsc4n3)cc2)n1 [Example 32, 6-[4-(1-Methyl-4-pyridin-4-yl-1H-pyrazol-3-yl)-phenoxymethyl]-imidazo[2,1-b]thiazole] | 12 nM |
| Cn1c(COc2ccc(-n3ccnc3-c3ccncc3)cc2)nc2ccccc21 [Example 37, 2-((4-(2-(pyridin-4-yl)-1H-imidazol-1-yl)phenoxy)methyl)-1-methyl-1H-benzo[d]imidazole] | 28.8 nM |
| Oc1ccc(-n2ccnc2-c2ccncc2)cc1 [Preparation 37, 4-(2-(pyridin-4-yl)-1H-imidazol-1-yl)phenol] | 8.82 nM |
